Test results from patent US20230024096A1, “BIFUNCTIONAL COMPOUNDS FOR THE TREATMENT OF CANCER” (Hoffmann-La Roche Inc., priority 2019, published 2023).

Molecular target: T1, SMARCA2 (Homo sapiens, UniProt P51531)
T1 construct: endogenous in cells; host or cells: HT1080 (CRISPR HiBiT knock-in clone, generated in house)
Assay: SMARCA2 HiBiT degradation assay (cellular)
Format: cell-based
Details: table head names A549; for DC50: 6 h incubation, HiBiT-tagged SMARCA2, luminescence read-out, read-out: HiBit A549 SMARCA2 IP (nM) 6 h; for Emax: A549, 6 h incubation, Emax = amount of residual protein remaining in the cell following compound treatment

T1 sequence (P51531 whole entry): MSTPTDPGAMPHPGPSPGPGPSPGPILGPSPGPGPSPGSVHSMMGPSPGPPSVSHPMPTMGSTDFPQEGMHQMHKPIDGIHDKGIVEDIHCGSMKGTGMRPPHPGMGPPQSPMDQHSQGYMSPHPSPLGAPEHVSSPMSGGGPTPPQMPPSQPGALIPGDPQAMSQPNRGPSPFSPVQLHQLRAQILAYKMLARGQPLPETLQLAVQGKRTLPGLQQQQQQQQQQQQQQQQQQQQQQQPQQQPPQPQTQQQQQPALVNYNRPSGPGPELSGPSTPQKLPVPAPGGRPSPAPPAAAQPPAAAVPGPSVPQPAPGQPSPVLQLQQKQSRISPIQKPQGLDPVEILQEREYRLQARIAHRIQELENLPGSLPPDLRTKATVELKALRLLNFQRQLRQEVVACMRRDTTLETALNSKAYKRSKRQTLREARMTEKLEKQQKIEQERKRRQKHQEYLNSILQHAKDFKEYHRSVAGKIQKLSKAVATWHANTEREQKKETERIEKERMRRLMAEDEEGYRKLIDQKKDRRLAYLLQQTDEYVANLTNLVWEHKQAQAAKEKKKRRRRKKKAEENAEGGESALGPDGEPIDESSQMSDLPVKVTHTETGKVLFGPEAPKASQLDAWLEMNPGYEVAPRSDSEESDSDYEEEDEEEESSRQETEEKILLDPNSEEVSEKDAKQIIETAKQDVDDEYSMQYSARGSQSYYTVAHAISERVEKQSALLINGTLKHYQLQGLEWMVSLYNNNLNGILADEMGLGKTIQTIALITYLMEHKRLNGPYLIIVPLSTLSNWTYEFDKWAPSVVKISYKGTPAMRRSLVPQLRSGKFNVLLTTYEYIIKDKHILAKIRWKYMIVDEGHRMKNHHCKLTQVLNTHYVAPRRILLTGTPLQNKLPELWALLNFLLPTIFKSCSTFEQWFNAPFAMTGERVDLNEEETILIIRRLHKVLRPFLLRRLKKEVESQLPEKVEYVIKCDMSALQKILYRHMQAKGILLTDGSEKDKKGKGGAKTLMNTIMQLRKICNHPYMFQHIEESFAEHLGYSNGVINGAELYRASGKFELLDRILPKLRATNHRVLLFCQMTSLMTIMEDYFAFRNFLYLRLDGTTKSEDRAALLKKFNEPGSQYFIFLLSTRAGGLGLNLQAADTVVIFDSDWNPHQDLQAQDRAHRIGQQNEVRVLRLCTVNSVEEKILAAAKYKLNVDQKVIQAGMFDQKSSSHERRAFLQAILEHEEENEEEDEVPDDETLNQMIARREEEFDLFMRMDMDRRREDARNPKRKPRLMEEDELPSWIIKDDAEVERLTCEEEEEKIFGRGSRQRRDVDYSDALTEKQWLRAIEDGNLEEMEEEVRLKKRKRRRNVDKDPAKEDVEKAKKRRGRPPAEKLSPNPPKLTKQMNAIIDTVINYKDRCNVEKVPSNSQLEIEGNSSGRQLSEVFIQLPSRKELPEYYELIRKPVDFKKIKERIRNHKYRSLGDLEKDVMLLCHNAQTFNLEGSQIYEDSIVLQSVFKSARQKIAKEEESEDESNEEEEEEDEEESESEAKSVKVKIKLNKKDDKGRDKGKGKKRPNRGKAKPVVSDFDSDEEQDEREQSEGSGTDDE

Row | SMILES | DC50 | Emax
1 | CC(C)(Nc1cccc2c1C(=O)N(C1CCC(=O)NC1=O)C2=O)c1cn(CCCCCCCCCN2CCN(c3ccc(N4CCCC(Oc5cc(-c6ccccc6O)nnc5N)C4)cc3)CC2)nn1 (stereo not shown) [Example 88, 4-[[1-[1-[9-[4-[4-[3-[3-amino-6-(2-hydroxyphenyl)pyridazin-4-yl]oxy-1-piperidyl]phenyl]piperazin-1-yl]nonyl]triazol-4-yl]-1-methyl-ethyl]amino]-2-(2,6-dioxo-3-piperidyl)isoindoline-1,3-dione] | 55 nM | 37%
2 | Nc1nnc(-c2ccccc2O)cc1N1CC2CCC(C1)N2c1ccccc1OCCN1CCN(c2ccc3c(c2)C(=O)N(C2CCC(=O)NC2=O)C3=O)CC1 (racemic) [Example 144, rac-5-[4-[2-[2-[3-[3-amino-6-(2-hydroxyphenyl)pyridazin-4-yl]-3,8-diazabicyclo[3.2.1]octan-8-yl]phenoxy]ethyl]piperazin-1-yl]-2-(2,6-dioxo-3-piperidyl)isoindoline-1,3-dione] | 797 nM | 75%
3 | Nc1nnc(-c2ccccc2O)cc1N1CC(Oc2ccc(C(=O)N3CCN(C(=O)CCCCCCCCCNc4cccc5c4C(=O)N(C4CCC(=O)NC4=O)C5=O)CC3)cc2)C1 (stereo not shown) [Example 150, 4-[[10-[4-[4-[1-[3-amino-6-(2-hydroxyphenyl)pyridazin-4-yl]azetidin-3-yl]oxybenzoyl]piperazin-1-yl]-10-oxo-decyl]amino]-2-(2,6-dioxo-3-piperidyl)isoindoline-1,3-dione] | 553 nM | 65%
4 | CC(Oc1cccc2c1C(=O)N(C1CCC(=O)NC1=O)C2=O)c1cn(C2CN(C(=O)CCCCN3CCN(c4ccc(N5CCC[C@H](Oc6cc(-c7ccccc7O)nnc6N)C5)cc4)CC3)C2)nn1 (mixture of isomers) [Example 199, 2-(2,6-dioxo-3-piperidyl)-4-[1-[1-[1-[5-[4-[4-[rac-(3S)-3-[3-amino-6-(2-hydroxyphenyl)pyridazin-4-yl]oxy-1-piperidyl]phenyl]piperazin-1-yl]pentanoyl]azetidin-3-yl]triazol-4-yl]ethoxy]isoindoline-1,3-dione] | 107 nM | 62%
5 | Nc1nnc(-c2ccccc2O)cc1N1CCC(C(=O)N2CCC3(CC2)CN(C(=O)CN2CCN(c4ccc(NC5CCC(=O)NC5=O)cc4)CC2)CCO3)(c2ccccc2)CC1 (stereo not shown) [Example 173, 3-((4-(4-(2-(9-(1-(3-amino-6-(2-hydroxyphenyl)pyridazin-4-yl)-4-phenylpiperidine-4-carbonyl)-1-oxa-4,9-diazaspiro[5.5]undecan-4-yl)-2-oxoethyl)piperazin-1-yl)phenyl)amino)piperidine-2,6-dione] | 110 nM | 72%
6 | Nc1nnc(-c2ccccc2O)cc1N1CC(Oc2cccc(C(=O)N3CCN(C(=O)CCCCCCNc4cccc5c4C(=O)N(C4CCC(=O)NC4=O)C5=O)CC3)c2)C1 (stereo not shown) [Example 145, 4-[[7-[4-[3-[1-[3-amino-6-(2-hydroxyphenyl)pyridazin-4-yl]azetidin-3-yl]oxybenzoyl]piperazin-1-yl]-7-oxo-heptyl]amino]-2-(2,6-dioxo-3-piperidyl)isoindoline-1,3-dione] | 928 nM | 69%
7 | Nc1nnc(-c2ccccc2O)cc1N1CCN(c2cccc(CN3CCN(C(=O)C4CCN(c5ccc6c(c5)C(=O)N(C5CCC(=O)NC5=O)C6=O)CC4)CC3)c2)C2(CC2)C1 (stereo not shown) [Example 127, 5-(4-(4-(3-(7-(3-amino-6-(2-hydroxyphenyl)pyridazin-4-yl)-4,7-diazaspiro[2.5]octan-4-yl)benzyl)piperazine-1-carbonyl)piperidin-1-yl)-2-(2,6-dioxopiperidin-3-yl)isoindoline-1,3-dione] | – | 26%
8 | Nc1nnc(-c2ccccc2O)cc1N1CC2CCC(C1)N2c1cccc(CN2CCC(C(=O)N3CCC(c4ccc(NC5CCC(=O)NC5=O)cc4)CC3)CC2)c1 (racemic) [Example 93, rac-3-[4-[1-[1-[[3-[3-[3-amino-6-(2-hydroxyphenyl)pyridazin-4-yl]-3,8-diazabicyclo[3.2.1]octan-8-yl]phenyl]methyl]piperidine-4-carbonyl]-4-piperidyl]anilino]piperidine-2,6-dione] | 9 nM | 52%
9 | Nc1nnc(-c2ccccc2O)cc1OC1CCCN(c2ccc(N3CCN(C(=O)CCCCCCCCCn4cc(CNc5cccc6c5C(=O)N(C5CCC(=O)NC5=O)C6=O)nn4)CC3)cc2)C1 (stereo not shown) [Example 28, 4-[[1-[10-[4-[4-[3-[3-amino-6-(2-hydroxyphenyl)pyridazin-4-yl]oxy-1-piperidyl]phenyl]piperazin-1-yl]-10-oxo-decyl]triazol-4-yl]methylamino]-2-(2,6-dioxo-3-piperidyl)isoindoline-1,3-dione] | 91 nM | 48%
10 | Nc1nnc(-c2ccccc2O)cc1N1CC2CCC(C1)N2c1cccc(OCCN2CCN(C(=O)CCC(=O)N3CCC(Oc4ccc5c(c4)C(=O)N(C4CCC(=O)NC4=O)C5=O)CC3)CC2)c1 (racemic) [Example 10, rac-5-[[1-[4-[4-[2-[3-[3-[3-amino-6-(2-hydroxyphenyl)pyridazin-4-yl]-3,8-diazabicyclo[3.2.1]octan-8-yl]phenoxy]ethyl]piperazin-1-yl]-4-oxo-butanoyl]-4-piperidyl]oxy]-2-(2,6-dioxo-3-piperidyl)isoindoline-1,3-dione] | 58 nM | 49%
11 | Nc1nnc(-c2ccccc2O)cc1N1CC(Oc2ccc(CN3CCN(C(=O)CCCCCCNc4cccc5c4C(=O)N(C4CCC(=O)NC4=O)C5=O)CC3)cc2)C1 (stereo not shown) [Example 67, 4-[[7-[4-[[4-[1-[3-amino-6-(2-hydroxyphenyl)pyridazin-4-yl]azetidin-3-yl]oxyphenyl]methyl]piperazin-1-yl]-7-oxo-heptyl]amino]-2-(2,6-dioxo-3-piperidyl)isoindoline-1,3-dione] | 37 nM | 54%
12 | Nc1nnc(-c2ccccc2O)cc1OC1CCCN(c2ccc(OCCN3CCN(C(=O)CCCCCCCCCCCCC(=O)N4CCN(c5ccc(NC6CCC(=O)NC6=O)cc5)CC4)CC3)cc2)C1 (stereo not shown) [Example 25, 3-[4-[4-[14-[4-[2-[4-[3-[3-amino-6-(2-hydroxyphenyl)pyridazin-4-yl]oxy-1-piperidyl]phenoxy]ethyl]piperazin-1-yl]-14-oxo-tetradecanoyl]piperazin-1-yl]anilino]piperidine-2,6-dione] | 614 nM | 59%
13 | Nc1nnc(-c2ccccc2O)cc1N1CCC2(CC1)CN(c1cccc(OCCN3CCN(C(=O)C4CCN(c5ccc6c(c5)C(=O)N(C5CCC(=O)NC5=O)C6=O)CC4)CC3)c1)CCO2 (stereo not shown) [Example 83, 5-(4-(4-(2-(3-(9-(3-amino-6-(2-hydroxyphenyl)pyridazin-4-yl)-1-oxa-4,9-diazaspiro[5.5]undecan-4-yl)phenoxy)ethyl)piperazine-1-carbonyl)piperidin-1-yl)-2-(2,6-dioxopiperidin-3-yl)isoindoline-1,3-dione] | 273 nM | 59%
14 | Nc1nnc(-c2ccccc2O)cc1N1CCC2(CC1)CN(C(=O)CCCCCCCCCCCn1cc(CNc3cccc4c3C(=O)N(C3CCC(=O)NC3=O)C4=O)nn1)CCO2 (stereo not shown) [Example 7, 4-[[1-[12-[9-[3-amino-6-(2-hydroxyphenyl)pyridazin-4-yl]-1-oxa-4,9-diazaspiro[5.5]undecan-4-yl]-12-oxo-dodecyl]triazol-4-yl]methylamino]-2-(2,6-dioxo-3-piperidyl)isoindoline-1,3-dione] | 423 nM | 42%
15 | Nc1nnc(-c2ccccc2O)cc1N1CCC(NC(=O)CC2CCN(C(=O)CCCN3CCC(c4ccc(NC5CCC(=O)NC5=O)cc4)CC3)CC2)(c2ccccc2)CC1 (stereo not shown) [Example 185, N-[1-[3-amino-6-(2-hydroxyphenyl)pyridazin-4-yl]-4-phenyl-4-piperidyl]-2-[1-[4-[4-[4-[(2,6-dioxo-3-piperidyl)amino]phenyl]-1-piperidyl]butanoyl]-4-piperidyl]acetamide] | 241 nM | 62%
16 | Nc1nnc(-c2ccccc2O)cc1N1CCC(NC(=O)CCCN2CCC(c3ccc(NC4CCC(=O)NC4=O)cc3)CC2)(c2ccccc2)CC1 (stereo not shown) [Example 91, N-[1-[3-amino-6-(2-hydroxyphenyl)pyridazin-4-yl]-4-phenyl-4-piperidyl]-4-[4-[4-[(2,6-dioxo-3-piperidyl)amino]phenyl]-1-piperidyl]butanamide] | 90 nM | 46%
